According to ChEMBL document CHEMBL4385598, “A comprehensive review of topoisomerase inhibitors as anticancer agents in the past decade” (Eur J Med Chem, 2019):

How the values were obtained:
HeLa [1] = assay: Cytotoxicity against human HeLa cells assessed as reduction in cell growth incubated for 48 hrs by SRB assay; type: functional, cell-based
Ca-Ski = assay: Cytotoxicity against human CaSki cells assessed as reduction in cell growth incubated for 48 hrs by SRB assay; type: functional, cell-based
HL-60 = assay: Antitumor activity against human HL60 cells assessed as reduction in cell viability by MTT assay; type: functional, cell-based
L1210 = assay: Antitumor activity against mouse L1210 cells assessed as reduction in cell viability by MTT assay; type: functional, cell-based
T47D = assay: Cytotoxicity against human T47D cells assessed as reduction in cell growth preincubated for 4 hrs in FBS starvation condition followed by incubation for 2 days by CCK8-based cell counting method; type: functional
[2] = target: T1, DNA topoisomerase I (Bos taurus) (UniProt F1MN93); assay: Inhibition of calf thymus DNA topoisomerase 1 using supercoiled pBR322 plasmid DNA as substrate at 20 uM after 30 mins by agarose gel electrophoresis method relative to control
T1 sequence (whole entry): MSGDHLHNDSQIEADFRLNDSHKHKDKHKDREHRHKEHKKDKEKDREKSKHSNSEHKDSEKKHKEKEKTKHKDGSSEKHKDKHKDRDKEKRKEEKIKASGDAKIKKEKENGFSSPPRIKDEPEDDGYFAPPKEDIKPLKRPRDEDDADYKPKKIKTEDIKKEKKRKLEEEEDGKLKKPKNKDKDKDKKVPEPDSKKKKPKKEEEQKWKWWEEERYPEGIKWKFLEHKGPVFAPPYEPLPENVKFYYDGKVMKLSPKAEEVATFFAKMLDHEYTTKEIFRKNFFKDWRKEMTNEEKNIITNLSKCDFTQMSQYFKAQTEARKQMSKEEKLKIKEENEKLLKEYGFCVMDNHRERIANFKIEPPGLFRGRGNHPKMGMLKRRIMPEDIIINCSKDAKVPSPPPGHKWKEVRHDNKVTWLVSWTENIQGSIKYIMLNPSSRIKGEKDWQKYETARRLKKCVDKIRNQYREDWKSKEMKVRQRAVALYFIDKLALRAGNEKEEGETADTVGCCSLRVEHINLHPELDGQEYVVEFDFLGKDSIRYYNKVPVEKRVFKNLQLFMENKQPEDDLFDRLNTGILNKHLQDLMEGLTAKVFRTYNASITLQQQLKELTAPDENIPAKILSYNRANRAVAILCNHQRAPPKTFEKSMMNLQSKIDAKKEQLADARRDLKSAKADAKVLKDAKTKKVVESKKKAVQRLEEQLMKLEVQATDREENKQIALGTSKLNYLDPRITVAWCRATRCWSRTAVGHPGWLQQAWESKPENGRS

HCT-116 = assay: Cytotoxicity against human HCT116 cells assessed as reduction in cell growth by WST-1 assay; type: functional, cell-based
A549 = assay: Cytotoxicity against human A549 cells assessed as reduction in cell viability incubated for 24 hrs by MTT assay; type: functional, cell-based; details: A549, 24 h
[3] = target: DNA topoisomerase 2-alpha (Homo sapiens) (UniProt P11388); assay: Inhibition of human DNA topoisomerase 2 using supercoiled pBR322 plasmid DNA as substrate at 20 uM after 30 mins by agarose gel electrophoresis method relative to control
HeLa [4] = assay: Antiproliferative activity against human HeLa cells assessed as reduction in cell growth incubated for 48 hrs by MTT assay; type: functional, cell-based
K562 = assay: Antiproliferative activity against human K562 cells assessed as reduction in cell growth incubated for 48 hrs by MTT assay; type: functional, cell-based; details: K562, 48 h
K562/A02 = assay: Antiproliferative activity against human K562/A02 cells assessed as reduction in cell growth incubated for 48 hrs by MTT assay; type: functional, cell-based; details: K562/A02, 48 h

Sequence of DNA topoisomerase 2-alpha (Homo sapiens) (P11388 whole entry): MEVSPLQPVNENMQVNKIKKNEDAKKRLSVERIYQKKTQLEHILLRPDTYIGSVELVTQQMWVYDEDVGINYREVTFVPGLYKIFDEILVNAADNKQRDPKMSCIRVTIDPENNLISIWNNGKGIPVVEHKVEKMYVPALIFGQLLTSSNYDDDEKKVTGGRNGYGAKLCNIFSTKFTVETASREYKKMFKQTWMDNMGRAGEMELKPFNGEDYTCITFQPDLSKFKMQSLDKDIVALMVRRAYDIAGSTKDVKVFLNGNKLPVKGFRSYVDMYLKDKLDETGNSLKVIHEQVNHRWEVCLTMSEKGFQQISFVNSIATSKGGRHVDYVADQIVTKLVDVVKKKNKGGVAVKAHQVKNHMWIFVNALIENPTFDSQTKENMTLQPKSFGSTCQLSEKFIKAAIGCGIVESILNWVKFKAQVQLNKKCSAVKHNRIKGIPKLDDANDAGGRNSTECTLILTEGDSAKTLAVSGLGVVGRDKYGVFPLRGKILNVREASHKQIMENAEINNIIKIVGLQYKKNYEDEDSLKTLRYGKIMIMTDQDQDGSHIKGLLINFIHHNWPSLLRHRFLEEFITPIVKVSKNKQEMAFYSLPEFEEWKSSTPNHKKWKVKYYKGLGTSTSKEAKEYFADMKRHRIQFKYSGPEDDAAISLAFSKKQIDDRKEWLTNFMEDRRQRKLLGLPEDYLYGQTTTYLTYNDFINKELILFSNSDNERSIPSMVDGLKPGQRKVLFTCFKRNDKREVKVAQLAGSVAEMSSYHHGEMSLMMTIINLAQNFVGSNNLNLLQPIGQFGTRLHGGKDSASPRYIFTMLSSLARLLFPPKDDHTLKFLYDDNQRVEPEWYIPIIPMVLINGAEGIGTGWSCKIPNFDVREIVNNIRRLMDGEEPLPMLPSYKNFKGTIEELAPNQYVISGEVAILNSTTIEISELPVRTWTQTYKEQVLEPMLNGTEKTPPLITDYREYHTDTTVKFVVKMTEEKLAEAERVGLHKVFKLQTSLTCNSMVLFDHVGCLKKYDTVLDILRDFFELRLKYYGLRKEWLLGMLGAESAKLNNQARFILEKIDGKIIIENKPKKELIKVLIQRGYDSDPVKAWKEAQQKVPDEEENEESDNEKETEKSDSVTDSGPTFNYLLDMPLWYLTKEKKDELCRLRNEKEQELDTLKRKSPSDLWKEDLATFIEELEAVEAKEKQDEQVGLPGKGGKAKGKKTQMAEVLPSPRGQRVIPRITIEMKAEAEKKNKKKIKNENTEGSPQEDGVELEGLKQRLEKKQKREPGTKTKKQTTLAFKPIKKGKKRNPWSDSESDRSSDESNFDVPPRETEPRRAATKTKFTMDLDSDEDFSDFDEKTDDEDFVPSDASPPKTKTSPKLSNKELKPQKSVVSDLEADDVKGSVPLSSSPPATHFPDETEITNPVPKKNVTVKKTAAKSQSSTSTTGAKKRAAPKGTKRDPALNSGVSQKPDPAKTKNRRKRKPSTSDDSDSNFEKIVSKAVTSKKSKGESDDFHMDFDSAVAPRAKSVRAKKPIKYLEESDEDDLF

COc1cc(CN2CCN(c3ccc(F)cc3)CC2)c2cc3[n+](cc2c1OC)CCc1cc2c(cc1-3)OCO2.[Cl-]
IC50 (HeLa [1]): < 6 µg/mL | IC50 (Ca-Ski): < 6 µg/mL

COc1cc(CN2CCN(c3ccccc3F)CC2)c2cc3[n+](cc2c1OC)CCc1cc2c(cc1-3)OCO2.[Cl-]
IC50 (HeLa [1]): < 6 µg/mL | IC50 (Ca-Ski): < 6 µg/mL

COc1ccc(/C=N/NC(=O)c2cn(C3CC3)c3cc(N4CCNCC4)c(F)cc3c2=O)cc1
IC50 (HL-60): ≤ 25 µM | IC50 (L1210): ≤ 25 µM

Oc1cccc(-c2cc(-c3ccc(Cl)cc3)cc(-c3ccco3)n2)c1
IC50 (T47D): 0.68 to 1.25 µM

Oc1cccc(-c2cc(-c3ccc(Cl)cc3)cc(-c3ccccc3)n2)c1
IC50 (T47D): 0.68 to 1.25 µM

COc1cc(CN2CCN(c3ccc(Cl)cc3)CC2)c2cc3[n+](cc2c1OC)CCc1cc2c(cc1-3)OCO2.[Cl-]
IC50 (HeLa [1]): < 6 µg/mL | IC50 (Ca-Ski): < 6 µg/mL

O=C(N/N=C/c1ccccc1O)c1cn(C2CC2)c2cc(N/N=C/c3ccccc3O)c(F)cc2c1=O
IC50 (HL-60): ≤ 25 µM | IC50 (L1210): ≤ 25 µM

CC[C@@]1(O)C(=O)OCc2c1cc1n(c2=O)Cc2cc3ccccc3nc2-1
inhibition [2]: 51%

O=C(N/N=C/c1ccccc1[N+](=O)[O-])c1cn(C2CC2)c2cc(N3CCNCC3)c(F)cc2c1=O
IC50 (HL-60): ≤ 25 µM | IC50 (L1210): ≤ 25 µM

COc1cc(CN2CCN(c3ccc(OC(F)(F)F)cc3)CC2)c2cc3[n+](cc2c1OC)CCc1cc2c(cc1-3)OCO2.[Cl-]
IC50 (HeLa [1]): < 6 µg/mL | IC50 (Ca-Ski): < 6 µg/mL

Oc1cccc(-c2cc(-c3cccc(Cl)c3)cc(-c3ccccc3)n2)c1
IC50 (T47D): 0.68 to 1.25 µM

Oc1cccc(-c2cc(-c3cccc(Cl)c3)cc(-c3ccsc3)n2)c1
IC50 (T47D): 0.68 to 1.25 µM

Oc1cccc(-c2cc(-c3cccc(Cl)c3)cc(-c3cccs3)n2)c1
IC50 (T47D): 0.68 to 1.25 µM

Oc1cccc(-c2cc(-c3ccc(Cl)cc3)cc(-c3ccsc3)n2)c1
IC50 (T47D): 0.68 to 1.25 µM

COc1ccc(/C=N/NC(=O)c2cn(C3CC3)c3cc(N/N=C/c4ccc(OC)cc4)c(F)cc3c2=O)cc1
IC50 (HL-60): ≤ 25 µM | IC50 (L1210): ≤ 25 µM

Oc1cccc(-c2cc(-c3ccccc3Cl)cc(-c3ccccc3)n2)c1
IC50 (T47D): 0.68 to 1.25 µM

O=C(N/N=C/c1ccccc1)c1cn(C2CC2)c2cc(N3CCNCC3)c(F)cc2c1=O
IC50 (HL-60): ≤ 25 µM | IC50 (L1210): ≤ 25 µM

COc1cc(CN2CCN(c3cccc(Cl)c3)CC2)c2cc3[n+](cc2c1OC)CCc1cc2c(cc1-3)OCO2.[Cl-]
IC50 (HeLa [1]): < 6 µg/mL | IC50 (Ca-Ski): < 6 µg/mL

COc1cc(CN2CCN(c3ccc(C(F)(F)F)cc3)CC2)c2cc3[n+](cc2c1OC)CCc1cc2c(cc1-3)OCO2.[Cl-]
IC50 (HeLa [1]): < 6 µg/mL | IC50 (Ca-Ski): < 6 µg/mL

COc1cc(CN2CCN(c3ccccc3Cl)CC2)c2cc3[n+](cc2c1OC)CCc1cc2c(cc1-3)OCO2.[Cl-]
IC50 (HeLa [1]): < 6 µg/mL | IC50 (Ca-Ski): < 6 µg/mL

O=C(N/N=C/c1ccccc1[N+](=O)[O-])c1cn(C2CC2)c2cc(N/N=C/c3ccccc3[N+](=O)[O-])c(F)cc2c1=O
IC50 (HL-60): ≤ 25 µM | IC50 (L1210): ≤ 25 µM

Oc1cccc(-c2cc(-c3cccc(Cl)c3)cc(-c3ccco3)n2)c1
IC50 (T47D): 0.68 to 1.25 µM

O=c1c(O)c(-c2cc(O)c(O)c(O)c2)oc2cc(O)cc(O)c12 [MYRICETIN]
IC50 (HCT-116): 28.2 µM

O=C(N/N=C/c1ccc2c(c1)OCO2)c1cn(C2CC2)c2cc(N3CCNCC3)c(F)cc2c1=O
IC50 (HL-60): ≤ 25 µM | IC50 (L1210): ≤ 25 µM

CCCCCCCCCCCCCCCC(=O)O [PALMITIC ACID]
IC50 (A549): 150 µM

COc1ccc(/C=N/NC(=O)c2cn(C3CC3)c3cc(N4CCNCC4)c(F)cc3c2=O)cc1O
IC50 (HL-60): ≤ 25 µM | IC50 (L1210): ≤ 25 µM

CCCCC[C@H](O)[C@@H](O)/C=C/[C@@H](O)CCCCCCCC(=O)O
inhibition [3]: 97% | inhibition [2]: 41%

COc1cc(CN2CCN(c3ccc([N+](=O)[O-])cc3)CC2)c2cc3[n+](cc2c1OC)CCc1cc2c(cc1-3)OCO2.[Cl-]
IC50 (HeLa [1]): < 6 µg/mL | IC50 (Ca-Ski): < 6 µg/mL

COc1cc(CN2CCN(c3ccccc3[N+](=O)[O-])CC2)c2cc3[n+](cc2c1OC)CCc1cc2c(cc1-3)OCO2.[Cl-]
IC50 (HeLa [1]): < 6 µg/mL | IC50 (Ca-Ski): < 6 µg/mL

Oc1cccc(-c2cc(-c3ccccc3Cl)cc(-c3ccsc3)n2)c1
IC50 (T47D): 0.68 to 1.25 µM

COc1cc(/C=N/NC(=O)c2cn(C3CC3)c3cc(N/N=C/c4cc(OC)c(OC)c(OC)c4)c(F)cc3c2=O)cc(OC)c1OC
IC50 (HL-60): ≤ 25 µM | IC50 (L1210): ≤ 25 µM

O=C(N/N=C/c1ccc(F)cc1)c1cn(C2CC2)c2cc(N3CCNCC3)c(F)cc2c1=O
IC50 (HL-60): ≤ 25 µM | IC50 (L1210): ≤ 25 µM

O=C(N/N=C/c1ccc(F)cc1)c1cn(C2CC2)c2cc(N/N=C/c3ccc(F)cc3)c(F)cc2c1=O
IC50 (HL-60): ≤ 25 µM | IC50 (L1210): ≤ 25 µM

Oc1ccc(-c2cc(-c3ccccc3Cl)cc(-c3ccco3)n2)cc1
IC50 (T47D): 0.68 to 1.25 µM

O=C(N/N=C/c1ccc2c(c1)OCO2)c1cn(C2CC2)c2cc(N/N=C/c3ccc4c(c3)OCO4)c(F)cc2c1=O
IC50 (HL-60): ≤ 25 µM | IC50 (L1210): ≤ 25 µM

COc1cc(CN2CCN(c3ccc(C)cc3)CC2)c2cc3[n+](cc2c1OC)CCc1cc2c(cc1-3)OCO2.[Cl-]
IC50 (HeLa [1]): < 6 µg/mL | IC50 (Ca-Ski): < 6 µg/mL

COc1ccc(/C=N/NC(=O)c2cn(C3CC3)c3cc(N/N=C/c4ccc(OC)c(O)c4)c(F)cc3c2=O)cc1O
IC50 (HL-60): ≤ 25 µM | IC50 (L1210): ≤ 25 µM

COc1cc(/C=N/NC(=O)c2cn(C3CC3)c3cc(N4CCNCC4)c(F)cc3c2=O)cc(OC)c1OC
IC50 (HL-60): ≤ 25 µM | IC50 (L1210): ≤ 25 µM

COc1cc([C@@H]2c3cc4c(cc3[C@@H](NC/C=C/c3ccc(CN5CCN(c6ccc([N+](=O)[O-])cc6)CC5)o3)[C@H]3COC(=O)[C@H]23)OCO4)cc(OC)c1OC
IC50 (HeLa [4]): 7.93 µM | IC50 (K562): 6.42 µM | IC50 (K562/A02): 6.89 µM

O=C(N/N=C/c1ccccc1)c1cn(C2CC2)c2cc(N/N=C/c3ccccc3)c(F)cc2c1=O
IC50 (HL-60): ≤ 25 µM | IC50 (L1210): ≤ 25 µM

O=C(N/N=C/c1ccccc1O)c1cn(C2CC2)c2cc(N3CCNCC3)c(F)cc2c1=O
IC50 (HL-60): ≤ 25 µM | IC50 (L1210): ≤ 25 µM
